Laboratory results reported in patent US11066369B2, “N-(pyridin-2-yl)pyridine-sulfonamide derivatives and their use in the treatment of disease” (Novartis AG, priority 2016, dated 2021).
Counter-ions that a name gives are not always drawn. Like-named read-outs stand apart in the source and are kept apart here.

Key:
delF508-CFTR = molecular target: T1, delF508-CFTR (Homo sapiens, UniProt P13569, DEL508-508); assay: Measurement of delF508-CFTR functional activity in primary human bronchial epithelial cells (HBECs) using Multi-Transepithelial Clamp Circuit (MTECC-24) assay; type: cell-based; details: primary CF HBECs; for MTECC24 CFHBEC- Amax %: test compound added 24h before assay plus potentiator, relative to reference combination (2 μM corrector + 0.5 μM potentiator); for EC50: test compound added 24h before assay, in the presence of potentiator, mean of at least two replicates, read-out: MTECC24 CFHBEC- EC50
T1 construct: functional activity of the CFTR channel (Chloride ion transport) in patient derived primary human bronchial epithelial cells; host or cells: patient-derived primary human bronchial epithelial cells (delF508-CFTR)
Source text: [formula] Measurement of delF508-CFTR Functional Activity in Primary Human Bronchial Epithelial Cells (HBECs) Using Multi-Transepithelial Clamp Circuit (MTECC-24) Assay
This assay measures the functional activity of the CFTR channel (Chloride ion transport) in patient derived primary human bronchial epithelial cells with forskolin activation and in the presence of the CFTR corrector/potentiator combo.
Primary human delF508-CFTR bronchial epithelial cells were purchased from Asterand and cultured according to previously established methods (Fulcher et al. (2005) Methods Mol Med 107: 183-206). Briefly, vendor supplied cells were rapidly defrosted and added to a T175 flask in 50 mL growth media (Lonza BEBM media with Lonza BEGM singlequots). Media was replaced after 24h and then cells were fed every other day until cells were 80-90% confluent, at which point cells were cryopreserved. These P1 vials were thawed at 37° C. as needed and added to T175 flasks in 50 mL growth media at 5×10^5 cells/flask. Media was replaced after 24h, and then cells were fed every other day until 80-90% confluent. Cells were lifted with 5 mL accutase at 37° C. for 5 minutes, centrifuged at 1000 rpms for 5 min (300 g), and resuspended in differentiation media (50% BEBM in DMEM, BEGM singlequots, all trans retinoic acid (5×10^−8M)). Cells were then counted and cell suspension was added to collagen coated inserts at 3×10^4 cells/insert in 0.15 mL with 0.5 mL differentiation media on the basolateral side.
Apical and basolateral media were replaced on alternate days, and following day 7 (or when confluent plus 2 days), air liquid interface was established for approximately two weeks by removal of apical media. One day prior to use on the MTECC24 system (EP-Devices, EP Design, Belgium), 0.15 mL of warmed (37° C.) PBS was added to the apical surface of the cultures and returned to humidifier (37° C., 5% CO2 incubator) for 30 min before aspirating the apical surface to remove any mucus.
Compound treatments were then prepared. Compound dilutions, typically a 10 point concentration response with 1 in 3 dilution steps, were made in 100% DMSO before dilution 1 in 1000 into differentiation medium with a final DMSO concentration of 0.1% or 0.2% for the study. Compound containing medium was then transferred into the wells of a 24 well plate at 0.5 mL per well and warmed for 30 min in a 37° C. incubator prior to transferring washed inserts into the compound containing plates. Cells were incubated in compound containing medium (basolateral only) for 24h prior to measurement in the MTECC24 system.
Following 24 hr treatment, compound dilutions were prepared again, diluted 1 in 1000 into 37° C. assay medium (F-12 Coon's modified, 20 mM HEPES pH7.4 with TRIS Base, No FCS or bicarbonate). Cells which were treated for 24h with test compound were then transferred into plates containing 0.75 mL compound treatment in assay medium (basolateral) and 0.25 mL of the compound containing assay medium was added to the apical surface. The plates were then transferred to the heated plate compartments of the MTECC24 system for 45 min prior to measurements (this can also be done in a non-CO2 37° C. humidified incubator). Basolateral temperature should not exceed 36.5° C. and apical temperature should be approximately 35.5° C.
Modulators were added sequentially as follows while the MTECC24 instrument recorded the equivalent short circuit current (Ieq):
Prior to dilution into F-12 medium the stocks are as follows:
Amiloride stock is 10 mM in H2O
Forskolin Stock is 10 mM in 100% DMSO
(S)-3-amino-6-methoxy-N-(3,3,3-trifluoro-2-hydroxy-2-methylpropyl)-5-(trifluoromethyl)picolinamide is 0.5 mM stock in 100% DMSO
INH-172 (4-[[4-Oxo-2-thioxo-3-[3-trifluoromethyl)phenyl]-5-thiazolidinylidene]methyl]benzoic acid) stock is 30 mM in 100% DMSO
The data was normalized using the median signal from wells treated with 0.1% DMSO as a baseline. […]

[1] = molecular target: T2, horseradish peroxidase (HRP) tagged delF508-CFTR (Homo sapiens, UniProt P13569, DEL508-508); assay: Measurement of delF508-CFTR-HRP surface expression in CFBE41o- cells; type: cell-based; details: CFBE41o- cells; for Emax: read-out: DelF508-CFTR-HRP Amax %; for EC50: read-out: DelF508-CFTR-HRP EC50;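 for DelF508-CFTR-HRP Amax %: percent efficacy relative to reference corrector lumacaftor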
T2 construct: expressed in transfected cells
Summary of the method: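 CFBE41o- bronchial epithelial cells stably expressing delF508-CFTR with HRP in the fourth extracellular loop; expression induced 48h with 500 ng/mL doxycycline, then compounds added (top 10 μM, 10-point 3-fold series, ≤0.5% DMSO) for 24h at 37° C. Surface HRP measured by luminescence with cell-impermeant substrate; EC50 from logistic fit of triplicates, plate-normalized to lowest concentration; efficacy also relative to a reference corrector.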

[2] = delF508-CFTR-HRP surface expression
[3] = mean of at least two replicates

T2 sequence (P13569 with tags, fused parts or gaps DEL508-508): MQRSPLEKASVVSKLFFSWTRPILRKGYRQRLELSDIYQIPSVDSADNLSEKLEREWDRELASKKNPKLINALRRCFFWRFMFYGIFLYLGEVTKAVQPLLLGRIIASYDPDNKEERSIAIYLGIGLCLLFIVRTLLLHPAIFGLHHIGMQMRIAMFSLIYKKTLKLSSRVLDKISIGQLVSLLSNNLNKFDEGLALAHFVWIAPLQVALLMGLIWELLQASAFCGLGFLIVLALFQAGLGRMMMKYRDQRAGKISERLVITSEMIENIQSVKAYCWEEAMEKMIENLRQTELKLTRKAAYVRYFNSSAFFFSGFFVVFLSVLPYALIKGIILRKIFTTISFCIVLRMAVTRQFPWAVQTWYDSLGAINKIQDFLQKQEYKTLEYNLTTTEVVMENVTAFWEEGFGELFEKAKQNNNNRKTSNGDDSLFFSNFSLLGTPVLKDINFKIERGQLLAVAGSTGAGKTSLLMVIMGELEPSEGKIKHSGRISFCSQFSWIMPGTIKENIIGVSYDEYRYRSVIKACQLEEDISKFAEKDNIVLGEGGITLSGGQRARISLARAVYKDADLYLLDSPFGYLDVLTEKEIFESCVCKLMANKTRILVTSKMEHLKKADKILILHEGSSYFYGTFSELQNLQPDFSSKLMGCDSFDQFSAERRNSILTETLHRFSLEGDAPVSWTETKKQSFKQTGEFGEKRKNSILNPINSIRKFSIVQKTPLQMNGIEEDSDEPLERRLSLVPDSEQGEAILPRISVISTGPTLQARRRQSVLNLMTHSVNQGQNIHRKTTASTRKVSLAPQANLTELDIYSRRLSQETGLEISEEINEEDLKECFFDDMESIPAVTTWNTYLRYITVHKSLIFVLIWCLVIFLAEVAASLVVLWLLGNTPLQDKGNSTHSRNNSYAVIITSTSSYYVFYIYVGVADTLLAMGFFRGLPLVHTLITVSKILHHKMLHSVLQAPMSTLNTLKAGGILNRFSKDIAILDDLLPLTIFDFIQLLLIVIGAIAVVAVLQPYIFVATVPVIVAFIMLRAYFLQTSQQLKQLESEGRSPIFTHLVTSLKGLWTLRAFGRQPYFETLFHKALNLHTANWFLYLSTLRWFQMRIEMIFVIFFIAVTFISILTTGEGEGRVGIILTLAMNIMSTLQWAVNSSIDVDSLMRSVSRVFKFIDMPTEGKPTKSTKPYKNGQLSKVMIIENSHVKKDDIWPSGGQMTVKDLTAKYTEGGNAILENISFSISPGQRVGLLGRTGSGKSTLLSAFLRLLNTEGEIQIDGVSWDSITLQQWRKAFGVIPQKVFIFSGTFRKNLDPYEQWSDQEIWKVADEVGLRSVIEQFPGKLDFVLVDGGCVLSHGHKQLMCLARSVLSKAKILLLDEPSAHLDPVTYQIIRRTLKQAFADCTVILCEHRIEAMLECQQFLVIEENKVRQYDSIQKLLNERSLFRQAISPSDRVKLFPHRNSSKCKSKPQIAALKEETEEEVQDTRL
T1 sequence (P13569 with tags, fused parts or gaps DEL508-508): as above

Compound	MTECC24 CFHBEC- Amax % (delF508-CFTR)	EC50 (delF508-CFTR)	Emax [1, 2]	EC50 [1, 2]	EC50 [1, 3]	Emax ([1]; surface expression Amax)
Cc1ccccc1-c1nc(NS(=O)(=O)c2cccc(N[C@@H]3CCNC[C@@H]3F)n2)ccc1C(F)(F)F (relative stereo) [Example 117, 6-(((3S,4R)-3-fluoropiperidin-4-yl)amino)-N-(6-(o-tolyl)-5-(trifluoromethyl)pyridin-2-yl)pyridine-2-sulfonamide Hydrochloride]	74.7%	33.1 nM	264%	2780 nM		
Cc1cc(F)ccc1-c1nc(NS(=O)(=O)c2cccc(N3CC(C)(O)C3)n2)ccc1C(F)(F)F [Example 217, N-(6-(4-fluoro-2-methylphenyl)-5-(trifluoromethyl)pyridin-2-yl)-6-(3-hydroxy-3-methylazetidin-1-yl)pyridine-2-sulfonamide]	66.3%	38 nM	157%	308 nM		
COc1ccc(Cl)c(-c2nc(NS(=O)(=O)c3cccc(N4CCC(C)(C(=O)O)CC4)n3)ccc2C(F)(F)F)c1 [Example 241, 1-(6-(N-(6-(2-chloro-5-methoxyphenyl)-5-(trifluoromethyl)pyridin-2-yl)sulfamoyl)pyridin-2-yl)-4-methylpiperidine-4-carboxylic Acid]	48.9%	12.4 nM	510%	2890 nM		
Cc1ccccc1-c1nc(NS(=O)(=O)c2cccc(OC3CC(C(=O)O)C3)n2)ccc1C(F)(F)F (mixture of isomers) [Example 331, 3-((6-(N-(6-(o-tolyl)-5-(trifluoromethyl)pyridin-2-yl)sulfamoyl)pyridin-2-yl)oxy)cyclobutanecarboxylic Acid]	67.4%	64.9 nM	218%	1520 nM		
Cc1ccccc1-c1nc(NS(=O)(=O)c2cccc(N[C@H]3CCCNC3)n2)ccc1C(F)(F)F [Example 105, (S)-6-(piperidin-3-ylamino)-N-(6-(o-tolyl)-5-(trifluoromethyl)pyridin-2-yl)pyridine-2-sulfonamide Hydrochloride]	58.1%	222 nM	310%	3190 nM		
Cc1ccc(F)cc1-c1nc(NS(=O)(=O)c2cccc(N3CCC[C@H](C(=O)O)C3)n2)ccc1C(F)(F)F [Example 359, (3S)-1-(6-{[6-(5-fluoro-2-methylphenyl)-5-(trifluoromethyl)pyridin-2-yl]sulfamoyl}pyridin-2-yl)piperidine-3-carboxylic Acid]	86.7%	2.04 nM	648%	1960 nM		
Cc1cc(F)ccc1-c1nc(NS(=O)(=O)c2cccc(N3CC(O)C3)n2)ccc1C(F)(F)F [Example 218, N-(6-(4-fluoro-2-methylphenyl)-5-(trifluoromethyl)pyridin-2-yl)-6-(3-hydroxyazetidin-1-yl)pyridine-2-sulfonamide]	59.5%	23 nM	465%	1750 nM		
O=C(O)[C@H]1CCCN(c2cccc(S(=O)(=O)Nc3ccc(C(F)(F)F)c(-c4ccccc4C4CCC4)n3)n2)C1 [Example 367, (S)-1-(6-(N-(6-(2-cyclobutylphenyl)-5-(trifluoromethyl)pyridin-2-yl)sulfamoyl)pyridin-2-yl)piperidine-3-carboxylic Acid]	91.2%	1.4 nM	809%	928 nM		
Cc1ccccc1-c1nc(NS(=O)(=O)c2cccc(O[C@@H]3COC[C@]3(C)O)n2)ccc1C(F)(F)F (single isomer, unassigned) [Example 294]	81.9%	11 nM	641%	2360 nM		
Cc1ccccc1-c1nc(NS(=O)(=O)c2cccc(N3CC[C@@H](N)[C@@H](F)C3)n2)ccc1C(F)(F)F [Example 111, 6-((3S,4R)-4-amino-3-fluoropiperidin-1-yl)-N-(6-(o-tolyl)-5-(trifluoromethyl)pyridin-2-yl)pyridine-2-sulfonamide Hydrochloride]	59.5%	31.8 nM				
O=S(=O)(Nc1ccc(Cl)c(-c2cccc(F)c2Cl)n1)c1cccc(N2CCNCC2)n1 [Example 159, N-(5-chloro-6-(2-chloro-3-fluorophenyl)pyridin-2-yl)-6-(piperazin-1-yl)pyridine-2-sulfonamide hydrochloride]			130%	4420 nM		
Cc1c(F)cccc1-c1nc(NS(=O)(=O)c2cccc(N3CCNCC3)n2)ccc1Cl [Example 194, N-[5-chloro-6-(3-fluoro-2-methylphenyl)pyridin-2-yl]-6-(piperazin-1-yl)pyridine-2-sulfonamide hydrochloride]			177%	3840 nM		
Cc1ccc(C#N)cc1-c1nc(NS(=O)(=O)c2ccnc(N)c2)ccc1Cl [Example 85, 2-amino-N-(5-chloro-6-(5-cyano-2-methylphenyl)pyridin-2-yl)pyridine-4-sulfonamide]			110%	3680 nM		
Cc1cccc(C)c1-c1nc(NS(=O)(=O)c2ccc(Br)c(N)n2)ccc1Cl [Example 81, 6-amino-5-bromo-N-(5-chloro-6-(2,6-dimethylphenyl)pyridin-2-yl)pyridine-2-sulfonamide]			127%	1980 nM		
Cc1ccc(OC(F)(F)F)cc1-c1nc(NS(=O)(=O)c2cccc(N)n2)ccc1C(F)(F)F [Example 82, 6-amino-N-(6-(2-methyl-5-(trifluoromethoxy)phenyl)-5-(trifluoromethyl)pyridin-2-yl)pyridine-2-sulfonamide]			124%	942 nM		
COc1ccc(Cl)c(-c2nc(NS(=O)(=O)c3cccc(N4CCCC(C)(C(=O)O)C4)n3)ccc2C(F)(F)F)c1 (stereo not shown) [Example 414, 1-(6-(N-(6-(2-chloro-5-methoxyphenyl)-5-(trifluoromethyl)pyridin-2-yl)sulfamoyl)pyridin-2-yl)-3-methylpiperidine-3-carboxylic Acid]					1890 nM	684%
CC(C)c1ccccc1-c1nc(NS(=O)(=O)c2cccc(N3CCCC(C)(C(=O)O)C3)n2)ccc1Cl (stereo not shown) [Example 388, 1-(6-(N-(5-chloro-6-(2-isopropylphenyl)pyridin-2-yl)sulfamoyl)pyridin-2-yl)-3-methylpiperidine-3-carboxylic Acid]					1020 nM	928%
